Data from ChEMBL document CHEMBL3739399, “Discovery of Indazole Derivatives as a Novel Class of Bacterial Gyrase B Inhibitors” (ACS Med Chem Lett, 2015).
Converted amounts (≈) assume the structure as drawn.

Assays:
[1] = biological target: DNA gyrase subunit B (Staphylococcus aureus, UniProt P0A0K8); test: Inhibition of Staphylococcus aureus Gyrase B ATPase activity by fluorescence analysis
[2] = Inhibition of Staphylococcus aureus topoisomerase 4 by fluorescence analysis
[3] = tested on: Staphylococcus aureus; test: Antibacterial activity against methicillin-sensitive Staphylococcus aureus 42 for 18 to 20 hrs by broth microdilution method; assay type: functional
[4] = tested on: Staphylococcus aureus; test: Antibacterial activity against methicillin-resistant Staphylococcus aureus 1118 for 18 to 20 hrs by broth microdilution method; assay type: functional
[5] = tested on: Staphylococcus aureus; test: Antibacterial activity against methicillin and ciprofloxacin-resistant Staphylococcus aureus 1721 for 18 to 20 hrs by broth microdilution method; assay type: functional
[6] = tested on: Streptococcus pneumoniae; test: Antibacterial activity against Streptococcus pneumoniae for 18 to 24 hrs by broth microdilution method; assay type: functional
[7] = tested on: Enterococcus faecium; test: Antibacterial activity against Enterococcus faecium for 18 to 20 hrs by broth microdilution method; assay type: functional
[8] = tested on: Enterococcus faecalis; test: Antibacterial activity against Enterococcus faecalis for 18 to 20 hrs by broth microdilution method; assay type: functional
[9] = tested on: Streptococcus pneumoniae; test: Antibacterial activity against Streptococcus pneumoniae 402 infected in sc dosed mouse assessed as reduction in 2 log CFU in lung compound administered as BID for 1 day measured 24 hrs after last dose; assay type: functional
[10] = tested on: Streptococcus pneumoniae; test: Antibacterial activity against Streptococcus pneumoniae 402 infected in sc dosed mouse assessed as reduction in 3 log CFU in lung compound administered as BID for 1 day measured 24 hrs after last dose; assay type: functional

DNA gyrase subunit B, sequence (P0A0K8 whole entry): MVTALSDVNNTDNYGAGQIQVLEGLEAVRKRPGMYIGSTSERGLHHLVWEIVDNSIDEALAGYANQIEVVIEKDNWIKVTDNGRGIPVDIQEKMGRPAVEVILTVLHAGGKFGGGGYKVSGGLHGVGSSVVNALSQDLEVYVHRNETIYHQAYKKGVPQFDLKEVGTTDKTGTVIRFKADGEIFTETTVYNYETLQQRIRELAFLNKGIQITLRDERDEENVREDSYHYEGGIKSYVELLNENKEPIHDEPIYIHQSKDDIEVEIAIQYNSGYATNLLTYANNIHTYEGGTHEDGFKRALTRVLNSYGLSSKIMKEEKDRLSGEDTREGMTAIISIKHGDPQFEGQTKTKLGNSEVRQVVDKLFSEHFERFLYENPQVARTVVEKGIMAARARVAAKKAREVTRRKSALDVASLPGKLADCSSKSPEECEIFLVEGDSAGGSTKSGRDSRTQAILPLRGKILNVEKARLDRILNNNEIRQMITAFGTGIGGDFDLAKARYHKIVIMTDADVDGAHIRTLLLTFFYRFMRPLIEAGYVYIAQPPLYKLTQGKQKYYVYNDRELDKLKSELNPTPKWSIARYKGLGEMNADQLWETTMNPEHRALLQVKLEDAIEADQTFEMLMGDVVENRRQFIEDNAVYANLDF

| Structure (SMILES) | IC50 [1] [nM] | IC50 [2] [nM] | MIC [3] [µg/mL] | MIC [4] [µg/mL] | MIC [5] [µg/mL] | MIC [6] [µg/mL] | MIC [7] [µg/mL] | MIC [8] [µg/mL] | ED [9] [mg/kg] | ED [10] [mg/kg] |
| --- | --- | --- | --- | --- | --- | --- | --- | --- | --- | --- |
| CCCc1cccc2c(-c3cnc(-c4ccnc(C(=O)O)c4)s3)n[nH]c12 | 11 | > 1000 | > 8 | > 8 | > 8 | 1 (≈ 2.74 µM) | > 8 | > 8 | – | – |
| CCCc1c(O)ccc2c(-c3cnc(-c4cnc(C(=O)O)c(O)c4)s3)n[nH]c12 | 13 | – | 1 (≈ 2.52 µM) | 4 (≈ 10.1 µM) | 2 (≈ 5.05 µM) | 0.25 (≈ 0.631 µM) | 0.25 (≈ 0.631 µM) | 0.125 (≈ 0.315 µM) | – | – |
| CCCc1cccc2c(-c3cnc(-c4ccc(C(=O)NCCN5CCCCC5)nc4)s3)n[nH]c12 | 20 | > 2000 | 2 (≈ 4.21 µM) | 1 (≈ 2.11 µM) | 2 (≈ 4.21 µM) | > 8 | > 8 | > 8 | – | – |
| CCCc1cccc2c(-c3cnc(-c4ccc(CO)nc4)s3)n[nH]c12 | 15 | > 4000 | 0.06 (≈ 0.171 µM) | 0.06 (≈ 0.171 µM) | 0.06 (≈ 0.171 µM) | 8 (≈ 22.8 µM) | > 8 | > 8 | – | – |
| CCCc1cccc2c(-c3cnc(-c4ccc(COP(=O)(O)O)nc4)s3)n[nH]c12 | 9 | 147 | 0.25 (≈ 0.581 µM) | 0.25 (≈ 0.581 µM) | 0.5 (≈ 1.16 µM) | 2 (≈ 4.65 µM) | 2 (≈ 4.65 µM) | > 8 | – | – |
| CCCc1cccc2c(-c3cnc(-c4cnc(C(=O)O)c(O)c4)s3)n[nH]c12 | 11 | 60 | 0.125 (≈ 0.329 µM) | 0.06 (≈ 0.158 µM) | 0.125 (≈ 0.329 µM) | 0.5 (≈ 1.31 µM) | 0.125 (≈ 0.329 µM) | 0.125 (≈ 0.329 µM) | – | – |
| CCCc1cccc2c(-c3cncs3)n[nH]c12 | 6500 | – | > 32 | > 32 | > 32 | > 32 | > 32 | > 32 | – | – |
| CCOc1cccc2c(-c3cnc(-c4ccc(C(=O)O)c(F)c4)s3)n[nH]c12 | < 8 | – | 0.5 (≈ 1.3 µM) | 0.5 (≈ 1.3 µM) | 1 (≈ 2.61 µM) | 1 (≈ 2.61 µM) | 2 (≈ 5.22 µM) | 1 (≈ 2.61 µM) | – | – |
| CCCOc1nccc2c(-c3cnc(-c4ccc(C(=O)O)nc4)s3)n[nH]c12 | < 8 | – | 4 (≈ 10.5 µM) | 4 (≈ 10.5 µM) | 8 (≈ 21 µM) | 0.06 (≈ 0.157 µM) | 2 (≈ 5.24 µM) | 2 (≈ 5.24 µM) | – | – |
| CCCc1cccc2c(-c3cnc(-c4ccc(C(=O)OC)nc4)s3)n[nH]c12 | 29 | > 10000 | 0.5 (≈ 1.32 µM) | 1 (≈ 2.64 µM) | 2 (≈ 5.28 µM) | 0.125 (≈ 0.33 µM) | > 8 | > 8 | – | – |
| CCCOc1nccc2c(-c3cnc(-c4ccc(CO)nc4)s3)n[nH]c12 | < 8 | – | 0.125 (≈ 0.34 µM) | 0.25 (≈ 0.68 µM) | 0.125 (≈ 0.34 µM) | 0.25 (≈ 0.68 µM) | 1 (≈ 2.72 µM) | 0.25 (≈ 0.68 µM) | – | – |
| CCCc1cccc2c(-c3cnc(-c4cnc(C(=O)OC)c(O)c4)s3)n[nH]c12 | < 8 | 68 | 1 (≈ 2.54 µM) | 1 (≈ 2.54 µM) | 2 (≈ 5.07 µM) | 1 (≈ 2.54 µM) | 2 (≈ 5.07 µM) | 1 (≈ 2.54 µM) | – | – |
| CCCc1cccc2c(-c3cnc(-c4cnc(C(=O)O)c(F)c4)s3)n[nH]c12 | < 8 | 24 | 0.125 (≈ 0.327 µM) | 0.125 (≈ 0.327 µM) | 0.25 (≈ 0.654 µM) | 0.25 (≈ 0.654 µM) | 0.25 (≈ 0.654 µM) | 0.25 (≈ 0.654 µM) | – | – |
| CCOc1nccc2c(-c3cnc(-c4cnc(C(=O)O)cc4C)s3)n[nH]c12 | < 8 | – | 0.25 (≈ 0.655 µM) | 0.5 (≈ 1.31 µM) | 0.5 (≈ 1.31 µM) | 0.125 (≈ 0.328 µM) | 0.5 (≈ 1.31 µM) | 0.25 (≈ 0.655 µM) | – | – |
| CCCc1cccc2c(-c3cnc(-c4cnc(C(=O)O)c(OC)c4)s3)n[nH]c12 | 14 | 115 | 1 (≈ 2.54 µM) | 1 (≈ 2.54 µM) | > 8 | 1 (≈ 2.54 µM) | 4 (≈ 10.1 µM) | 2 (≈ 5.07 µM) | – | – |
| C=CCc1cccc2c(-c3cnc(-c4ccc(C(=O)O)nc4)s3)n[nH]c12 | 9 | – | 0.03 (≈ 0.0828 µM) | 0.03 (≈ 0.0828 µM) | 0.06 (≈ 0.166 µM) | 0.25 (≈ 0.69 µM) | 0.125 (≈ 0.345 µM) | 0.125 (≈ 0.345 µM) | – | – |
| CCCc1cccc2c(-c3cnc(-c4ccc(CC(=O)O)nc4)s3)n[nH]c12 | 25 | 434 | 0.25 (≈ 0.661 µM) | 0.25 (≈ 0.661 µM) | 0.25 (≈ 0.661 µM) | 0.5 (≈ 1.32 µM) | 4 (≈ 10.6 µM) | 0.5 (≈ 1.32 µM) | – | – |
| CCCc1cccc2c(-c3cnc(-c4cnc(C(=O)O)cc4C)s3)n[nH]c12 | 12 | 60 | 0.02 (≈ 0.0528 µM) | 0.02 (≈ 0.0528 µM) | 0.03 (≈ 0.0793 µM) | 0.125 (≈ 0.33 µM) | 0.013 (≈ 0.0344 µM) | 0.06 (≈ 0.159 µM) | – | – |
| CCCc1cccc2c(-c3cnc(-c4ccc(C(=O)O)c(=O)[nH]4)s3)n[nH]c12 | 168 | – | > 8 | > 8 | > 8 | > 8 | > 8 | > 8 | – | – |
| CCCOc1nccc2c(-c3cnc(-c4cnc(C(=O)O)cc4C)s3)n[nH]c12 | 52 | – | 8 (≈ 20.2 µM) | 8 (≈ 20.2 µM) | 8 (≈ 20.2 µM) | 0.125 (≈ 0.316 µM) | 8 (≈ 20.2 µM) | 4 (≈ 10.1 µM) | – | – |
| CCCc1c(O)ccc2c(-c3cnc(-c4cnc(C(=O)O)cc4C)s3)n[nH]c12 | 8 | – | 0.125 (≈ 0.317 µM) | 0.125 (≈ 0.317 µM) | 0.125 (≈ 0.317 µM) | 0.06 (≈ 0.152 µM) | 0.25 (≈ 0.634 µM) | 0.06 (≈ 0.152 µM) | – | – |
| O=C(O)c1ccc(-c2ncc(-c3n[nH]c4c(CC5CC5)cccc34)s2)cn1 | 13 | – | 0.05 (≈ 0.133 µM) | 0.05 (≈ 0.133 µM) | 0.1 (≈ 0.266 µM) | 0.5 (≈ 1.33 µM) | 4 (≈ 10.6 µM) | 0.125 (≈ 0.332 µM) | – | – |
| CCCOc1nccc2c(-c3cnc(-c4ccc(COP(=O)([O-])[O-])nc4)s3)n[nH]c12.[Na+].[Na+] | < 8 | – | 8 | 8 | > 8 | 1 | 8 | > 8 | – | – |
| CCCc1c(O)ccc2c(-c3cnc(-c4ccc(C(=O)O)c(F)c4)s3)n[nH]c12 | 11 | – | 0.125 (≈ 0.315 µM) | 0.25 (≈ 0.629 µM) | 0.25 (≈ 0.629 µM) | 0.06 (≈ 0.151 µM) | 0.02 (≈ 0.0503 µM) | 0.02 (≈ 0.0503 µM) | – | – |
| CCCc1cccc2c(-c3cnc(-c4ccc(C(=O)O)cn4)s3)n[nH]c12 | 49 | 9900 | 8 (≈ 22 µM) | > 8 | > 8 | 8 (≈ 22 µM) | 4 (≈ 11 µM) | 8 (≈ 22 µM) | – | – |
| COc1c(N2C[C@@H]3CCCN[C@@H]3C2)c(F)cc2c(=O)c(C(=O)O)cn(C3CC3)c12 [MOXIFLOXACIN] | – | – | – | – | – | 0.06 (≈ 0.149 µM) | – | – | 28.6 | 50.8 |
